According to publication PMC12554177 (2025):

What was measured:
[1] = test system: c-myc (DNA, G4) TGAGGGTGGGTAGGGTGGGTAA; experiment: 1H NMR imino titration; conditions: 2 mM K+ (KCl), 100 µM DNA, H2O/D2O 90/10, 25 °C
[2] = test system: c-myc (DNA, G4) TGAGGGTGGGTAGGGTGGGTAA; experiment: CD melting; conditions: 2 mM K+ (KCl); 10 mM Tris-HCl pH 7.4, 50 µM drug, 5 µM DNA
[3] = test system: bcl2 (DNA, G4) AGGGGCGGGCGCGGGAGGAAGGGGGCGGA; experiment: CD melting; conditions: 2 mM K+ (KCl); 10 mM Tris-HCl pH 7.4, 50 µM drug, 5 µM DNA
[4] = test system: c-kit (DNA, G4) CGGGCGGGCGCGAGGGAGGGG; experiment: CD melting; conditions: 2 mM K+ (KCl); 10 mM Tris-HCl pH 7.4, 50 µM drug, 5 µM DNA
[5] = test system: KRAS (DNA, G4) GGGAGGGAGGGAAGGAGGGAGGGAGGGA; experiment: CD melting; conditions: 2 mM K+ (KCl); 10 mM Tris-HCl pH 7.4, 50 µM drug, 5 µM DNA
[6] = test system: VEGF (DNA, G4) CCCGGGGCGGGCCGGGGGCGGGGTCCCGGCGGGGCGGAG; experiment: CD melting; conditions: 2 mM K+ (KCl); 10 mM Tris-HCl pH 7.4, 50 µM drug, 5 µM DNA
[7] = test system: Duplex (DNA, duplex) CAATCGGATCGAATTCGATCCGATTG; experiment: CD melting; conditions: 2 mM K+ (KCl); 10 mM Tris-HCl pH 7.4, 50 µM drug, 5 µM DNA
[8] = test system: labeled c-myc (DNA, G4) TGAGGGTGGGTAGGGTGGGTAA; experiment: FRET melting; conditions: 2 mM K+ (KCl); 2 µM HCQ, ~25 nM DNA

## Nc1ccnc2cc(Cl)ccc12
[1]
  binding: yes

## CCN(CCO)CCCC(C)Nc1ccnc2cc(Cl)ccc12 (stereo not shown)
[2]
  ΔTm: ~ 17 °C
[3]
  ΔTm: 7 °C
[4]
  ΔTm: 11 °C
[5]
  ΔTm: 12 °C
[6]
  ΔTm: 9 °C
[7]
  binding: no
[8]
  Tm increase: ~ 12 °C
[1]; 5' end stacking
  binding: yes

## CCN(CC)CCCC(C)Nc1ccnc2cc(Cl)ccc12 (stereo not shown)
[7]
  binding: no
